Laboratory results as given in patent US9695191B2, “Conformationally constrained, fully synthetic macrocyclic compounds” (POLYPHOR AG, priority 2009, dated 2017).
Where two headings read alike, the source gives them in different places.

Experiments:
[1] = amide bond
[2] = both, CD-1, mouse, 10 μM
Method: (§2) Example compounds were dissolved in DMSO/H2O 90:10 to a final concentration of 10 mM for plasma stability determination and metabolic stability determination.
(§3) Human plasma (3-5 donors, Blutspendedienst SRK, Basel) and CD-1 mouse plasma (mixed gender pool>50 animals, Innovative Research, CA, USA) are both sodium citrate stabilized. The assay is performed in triplicates at 10 μM compound concentration and 37° C. Samples are taken at 0, 15, 60, and 240 minutes and stopped by precipitation with 2 volumes of acetonitrile. The supernatant is collected, evaporated and reconstituted in a 5% acetonitrile solution to be analyzed by HPLC/MS/MS. The resulting peak area counts are expressed in percent of the 0 value and used to determine the endpoint stability in % and the half life T½ in minutes. In order to monitor assay integrity the degradation of propantheline is assayed with every experimental set

[3] = human, 10 μM
Method: as §2, §3

[4] = Metabolic stability, CD-1 mouse microsomes; assay type: in vitro ADME; settings: 37° C.; for Metabolic Stability 60 min mouse: % of the initial 0 minutes value at 60 min, 10 μM
Method: (§1) Microsomes from a human 50 donor mixed gender pool and 1:1 mixtures of microsomes from CD-1 mouse single-gender pools are purchased from Celsis (Belgium). The enzymatic reaction is performed in a buffer containing an NADPH regeneration system and microsomes with the following end concentrations: 100 mM potassium phosphate buffer (all from Sigma), 1 mg/mL glucose-6-phosphate, 1 mg/mL β-nicotinamide adenine dinucleotide phosphate (NADP), 0.65 mg/mL magnesium chloride, 0.8 units/mL of glucose-6-phosphate dehydrogenase (prediluted with 5 mM citrate buffer), 10 μM compound and 1 mg/ml microsomal protein. Compounds are incubated at 37° C. in duplicates and samples are taken after 0, 20 and 60 minutes. After acetonitrile precipitation (2 volumes) and HPLC/MS/MS analysis metabolic turnover is expressed in % of the initial 0 minutes value and half life T½ (min) is calculated. Verapamil for human and propranolol for mouse are used as reference and are assayed with every experimental set. • F. P. Guengerich, Analysis and Characterization of Enzymes; in: Principles and Methods of Toxicology; A. W. Hayes (Ed.) Raven Press: New York, 1989, 777-813. • R. Singh et al., In vitro metabolism of a potent HIV-protease inhibitor (141W94) using rat, monkey and human liver S9, Rapid Commun. Mass Spectrom. 1996, 10, 1019-1026. 5. Results

[5] = Metabolic stability, human microsomes; assay type: in vitro ADME; settings: 37° C.; for Metabolic Stability 60 min hum: % of the initial 0 minutes value at 60 min, 10 μM
Method: as §1

[6] = 10 μM compound, 1 mg/ml microsomal protein, sampling up to 60 min

SMILES: CN1C(=O)c2cc(F)ccc2OC[C@@H]2C[C@H](NC(=O)OCC[Si](C)(C)C)CN2C(=O)CC[C@H]1C(=O)OCc1ccccc1
- ring closure, yield of all isomers ([1]; from CN(C(=O)c1cc(F)ccc1OC[C@@H]1C[C@H](NC(=O)OCC[Si](C)(C)C)CN1)[C@@H](CCC(=O)O)C(=O)OCc1ccccc1, T3P, CH2Cl2, 10.0 mM, 25.0 °C, […]): 61%

SMILES: CN1CC(=O)N2C[C@H](NC(=O)OC(C)(C)C)C[C@H]2COc2ccc(cc2)C(=O)N(C)[C@H](C(=O)OCc2ccccc2)CCC1=O
- ring closure, yield of all isomers ([1]; from CNCC(=O)N1C[C@H](NC(=O)OC(C)(C)C)C[C@H]1COc1ccc(C(=O)N(C)[C@@H](CCC(=O)O)C(=O)OCc2ccccc2)cc1, T3P, CH2Cl2, 1.05 mM, 3.0 h): 54%

SMILES: CN1CC(=O)N2C[C@@H](NC(=O)OC(C)(C)C)C[C@H]2COc2ccc(F)cc2C(=O)N(C)[C@H](C(=O)OCc2ccccc2)CCC1=O
- ring closure, yield of all isomers ([1]; from CNCC(=O)N1C[C@@H](NC(=O)OC(C)(C)C)C[C@H]1COc1ccc(F)cc1C(=O)N(C)[C@@H](CCC(=O)O)C(=O)OCc1ccccc1, FDPP, DMF, 8.44 mM, 25.0 °C, 22.0 h): 94%

SMILES: CN1C(=O)c2cc(F)ccc2OC[C@@H]2CN(C(=O)OC(C)(C)C)CCN2C(=O)CC[C@H]1C(=O)OCc1ccccc1
- ring closure, yield of all isomers ([1]; from CN(C(=O)c1cc(F)ccc1OC[C@@H]1CN(C(=O)OC(C)(C)C)CCN1)[C@@H](CCC(=O)O)C(=O)OCc1ccccc1, T3P, CH2Cl2, 0.57 mM, 25.0 °C, 22.0 h): 77%

SMILES: CN1CC(=O)N2C[C@H](NC(=O)OC(C)(C)C)C[C@H]2CSc2cccc(c2)C(=O)N(C)[C@H](C(=O)OCc2ccccc2)CCC1=O
- ring closure, yield of all isomers ([1]; from CNCC(=O)N1C[C@H](NC(=O)OC(C)(C)C)C[C@H]1CSc1cccc(C(=O)N(C)[C@@H](CCC(=O)O)C(=O)OCc2ccccc2)c1, T3P, CH2Cl2, 10.0 mM, 25.0 °C, 3.0 h): 57%

SMILES: CN1C[C@H](NC(=O)OCc2ccccc2)C(=O)N(C)CC(=O)N2C[C@@H](NC(=O)OC(C)(C)C)C[C@H]2COc2cncc(c2)C1=O [Ex. 272, benzyl N-[(4S,6S,13S)-6-[(tert-butoxycarbonyl)amino]-11,15-dimethyl-9,12,16-trioxo-2-oxa-8,11,15,19-tetraazatricyclo [15.3.1.0^4,8]henicosa-1(21),17,19-trien-13-yl]carbamate]
- Plasma Stability 240 min mouse [2]: 92%
- Plasma Stability 240 min hum [3]: 95%
- ring closure, yield of all isomers ([1]; from CNCC(=O)N1C[C@@H](NC(=O)OC(C)(C)C)C[C@H]1COc1cncc(C(=O)N(C)C[C@H](NC(=O)OCc2ccccc2)C(=O)O)c1, T3P, CH2Cl2, 9.75 mM): 38%

SMILES: CN1CCC[C@H](NC(=O)OCc2ccccc2)C(=O)N2C[C@@H](NC(=O)OCC[Si](C)(C)C)C[C@H]2COc2cccc(c2)C1=O
- ring closure, yield of all isomers ([1]; from CN(CCC[C@H](NC(=O)OCc1ccccc1)C(=O)O)C(=O)c1cccc(OC[C@@H]2C[C@H](NC(=O)OCC[Si](C)(C)C)CN2)c1, T3P, i-Pr2NEt, CH2Cl2, 9.4 mM): 54%

SMILES: CN1CC(=O)N2C[C@H](NC(=O)OC(C)(C)C)C[C@H]2COc2ccc(F)cc2C(=O)N(C)[C@H](C(=O)OCc2ccccc2)CCC1=O
- ring closure, yield of all isomers ([1]; from CNCC(=O)N1C[C@H](NC(=O)OC(C)(C)C)C[C@H]1COc1ccc(F)cc1C(=O)N(C)[C@@H](CCC(=O)O)C(=O)OCc1ccccc1, T3P, CH2Cl2, 10.5 mM, 25.0 °C, 22.0 h): 87%

SMILES: CN1CC(=O)N2C[C@H](NC(=O)CCc3ccncc3)C[C@H]2COc2ccc(cc2)C(=O)N(C)[C@H](C(=O)NCc2ccc3ccccc3c2)CCC1=O [Ex. 260, (4S,6R,15S)-11,16-dimethyl-N-(2-naphthylmethyl)-9,12,17-trioxo-6-{[3-(4-pyridinyl)propanoyl]amino}-2-oxa-8,11,16-triazatricyclo[16.2.2.0^4,8]docosa-1(20),18,21-triene-15-carboxamide]
- Metabolic Stability 60 min mouse [4]: 69%
- Plasma Stability 240 min mouse [2]: 100%
- Plasma Stability 240 min hum [3]: 100%
- Metabolic Stability 60 min hum [5]: 19%

SMILES: CN1CC(=O)N2C[C@@H](NC(=O)CN3CCCC3)C[C@H]2COc2ccc(F)cc2C(=O)N(C)[C@@H](C(=O)N2CCCC2)CCC1=O [Ex. 98, N-[(2S,11R,19aS)-15-fluoro-7,12-dimethyl-5,8,13-trioxo-11-(1-pyrrolidinylcarbonyl)-2,3,6,7,8,9,10,11,12,13,19,19a-dodecahydro-1H,5H-pyrrolo[2,1-c][1,4,7,12]benzoxatriazacyclopentadecin-2-yl]-2-(1-pyrrolidinyl)acetamide]
- Metabolic Stability 60 min mouse [4]: 100%
- Plasma Stability 240 min mouse [2]: 78%
- Plasma Stability 240 min hum [3]: 100%
- Metabolic Stability 60 min hum [5]: 97%

SMILES: CN1CC(=O)N2C[C@H](NC(=O)CN3CCCC3)C[C@H]2COc2ccc(cc2)C(=O)N(C)[C@H](C(=O)NCc2ccncc2)CCC1=O [Ex. 266, (4S,6R,15S)-11,16-dimethyl-9,12,17-trioxo-N-(4-pyridinylmethyl)-6-{[2-(1-pyrrolidinyl)acetyl]amino}-2-oxa-8,11,16-triazatricyclo[16.2.2.0^4,8]docosa-1(20),18,21-triene-15-carboxamide]
- Metabolic Stability 60 min mouse [4]: 98%
- Plasma Stability 240 min mouse [2]: 74%
- Plasma Stability 240 min hum [3]: 92%
- Metabolic Stability 60 min hum [5]: 100%

SMILES: CC(=O)N[C@H]1C[C@H]2COc3ccc(F)cc3C(=O)N(C)[C@H](C(=O)N3CCCC3)CCC(=O)N(C)CC(=O)N2C1 [Ex. 37, N-[(2S,11S,19aS)-15-fluoro-7,12-dimethyl-5,8,13-trioxo-11-(1-pyrrolidinylcarbonyl)-2,3,6,7,8,9,10,11,12,13,19,19a-dodecahydro-1H,5H-pyrrolo[2,1-c][1,4,7,12]benzoxatriazacyclopentadecin-2-yl]acetamide]
- Metabolic Stability T ½ [min] mouse [4, 6]: 60 min
- Metabolic Stability 60 min mouse [4]: 100%
- Plasma Stability 240 min mouse [2]: 100%
- Plasma Stability 240 min hum [3]: 77%
- Metabolic Stability T ½ [min] hum [5, 6]: 60 min
- Metabolic Stability 60 min hum [5]: 100%

SMILES: CCCCCCCCCC(=O)N[C@H]1C[C@H]2COc3ccc(F)cc3C(=O)N(C)[C@H](C(=O)NCc3ccc4ccccc4c3)CCC(=O)N(C)CC(=O)N2C1 [Ex. 102, (2S,11S,19aS)-2-(decanoylamino)-15-fluoro-7,12-dimethyl-N-(2-naphthylmethyl)-5,8,13-trioxo-2,3,6,7,8,9,10,11,12,13,19,19a-dodecahydro-1H,5H-pyrrolo[2,1-c][1,4,7,12] benzoxatriazacyclopentadecine-11-carboxamide]
- Metabolic Stability 60 min mouse [4]: 39%
- Plasma Stability 240 min mouse [2]: 75%
- Plasma Stability 240 min hum [3]: 65%
- Metabolic Stability 60 min hum [5]: 4%

SMILES: CN1CC(=O)N2C[C@@H](NC(=O)OCC[Si](C)(C)C)C[C@H]2COc2cccc3c2C[C@@](NC(=O)OC(C)(C)C)(CC3)C(=O)N(C)C[C@H](NC(=O)OCc2ccccc2)C1=O
- ring closure, yield of all isomers ([1]; from CN(CC(=O)O)C(=O)[C@H](CN(C)C(=O)[C@]1(NC(=O)OC(C)(C)C)CCc2cccc(OC[C@@H]3C[C@H](NC(=O)OCC[Si](C)(C)C)CN3)c2C1)NC(=O)OCc1ccccc1, T3P, CH2Cl2, 10.0 mM, 2.0 h): 44%

SMILES: CN1CC(=O)N2C[C@@H](N)C[C@H]2COc2ccc(F)cc2C(=O)N(C)[C@@H](C(=O)NCc2ccc3ccccc3c2)CCC1=O [Ex. 91, (2S,11R,19aS)-2-amino-15-fluoro-7,12-dimethyl-N-(2-naphthylmethyl)-5,8,13-trioxo-2,3,6,7,8,9,10,11,12,13,19,19a-dodecahydro-1H,5H-pyrrolo[2,1-c][1,4,7,12] benzoxatriazacyclopentadecine-11-carboxamide]
- Metabolic Stability 60 min mouse [4]: 95%
- Plasma Stability 240 min mouse [2]: 88%
- Plasma Stability 240 min hum [3]: 96%
- Metabolic Stability 60 min hum [5]: 91%

SMILES: CC(=O)N[C@H]1CN(C)C(=O)c2cccc(c2)OC[C@@H]2C[C@H](NC(=O)CN(C)C)CN2C(=O)CN(C)C1=O [Ex. 208, N-[(4S,6S,13S)-13-(acetylamino)-11,15-dimethyl-9,12,16-trioxo-2-oxa-8,11,15-triazatricyclo[15.3.1.0^4,8]henicosa-1(21),17,19-trien-6-yl]-2-(dimethylamino)acetamide]
- Metabolic Stability 60 min mouse [4]: 100%
- Plasma Stability 240 min mouse [2]: 90%
- Plasma Stability 240 min hum [3]: 98%
- Metabolic Stability 60 min hum [5]: 84%
